Experiments:
[1] = refrigerator: 2 to 8° C.; cited from earlier work
Solubility in water = format: physicochemical

SMILES	true solubility of leucovorin (calculated as folinic acid) [1] [mg per ml]	solubility in water (Solubility in water)
Nc1nc2c(c(=O)[nH]1)N(C=O)C(CNc1ccc(C(=O)N[C@@H](CCC(=O)O)C(=O)O)cc1)CN2 (single isomer, unassigned) [leucovorin]	3	–
Nc1nc2c(c(=O)[nH]1)N(C=O)C(CNc1ccc(C(=O)NC(CCC(=O)[O-])C(=O)[O-])cc1)CN2.[Zn+2] (centres unmarked) [leucovorin zinc]	–	almost insoluble in water
